Laboratory results taken from patent US12049466B2, “Fused bicyclic compounds useful as ubiquitin-specific peptidase 30 inhibitors” (FORMA Therapeutics, Inc., priority 2018, dated 2024).

Target: T1, human recombinant USP30 (Homo sapiens, UniProt Q70CQ3)
T1 construct: purchased Boston Biochem E-582
T1 sequence (Q70CQ3 1-517): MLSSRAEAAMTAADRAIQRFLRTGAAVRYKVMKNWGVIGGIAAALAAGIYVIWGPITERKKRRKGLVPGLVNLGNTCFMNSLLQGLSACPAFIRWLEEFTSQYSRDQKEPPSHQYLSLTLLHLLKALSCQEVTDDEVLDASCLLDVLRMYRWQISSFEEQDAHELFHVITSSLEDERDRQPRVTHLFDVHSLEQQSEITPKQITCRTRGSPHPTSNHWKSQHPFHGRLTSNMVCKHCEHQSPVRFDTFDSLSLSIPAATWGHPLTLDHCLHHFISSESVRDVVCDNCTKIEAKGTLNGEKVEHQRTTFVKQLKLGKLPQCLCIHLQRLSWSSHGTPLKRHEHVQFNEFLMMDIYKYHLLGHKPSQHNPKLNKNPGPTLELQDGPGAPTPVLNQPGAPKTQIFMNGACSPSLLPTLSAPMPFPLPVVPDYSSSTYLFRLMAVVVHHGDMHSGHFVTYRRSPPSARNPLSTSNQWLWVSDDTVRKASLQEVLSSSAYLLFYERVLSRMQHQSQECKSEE
Experiment: Ubiquitin-Rhodamine 110 Assay for USP30 Activity (USP30 biochemical assay)
Conditions: IC50 ranges; 0.4 nM enzyme, 25 nM Ub-Rh110, 30 min preincubation, test concentration 25 μM to 1.3 nM
Method: Assay Example A: Description of Biochemical Assay: Ubiquitin-Rhodamine 110 Assay for USP30 Activity
The assay was performed in a final volume of 6 μL in assay buffer containing 20 mM Tris-HCl (pH 8.0, (1M Tris-HCl, pH 8.0 solution; Corning 46-031-CM)), 1 mM GSH (L-glutathione reduced, Sigma-Aldrich, G4251-100G), 0.03% BGG ([…], Sigma, G7516-25G), and 0.01% Triton X-100 (Sigma, T9284-10L). Nanoliter quantities of 10-point, 3-fold serial dilution in DMSO were pre-dispensed into 1536 assay plates (Corning, #3724BC) for a final test concentration of 25 μM to 1.3 nM, top to lowest dose, respectively. Concentration and incubation times were optimized for the maximal signal-to-background while maintaining initial velocity conditions at a fixed substrate concentration (<<Km). The final concentration of enzyme (human recombinant USP30, Boston Biochem, cat. #E-582) in the assay was 0.4 nM. Final substrate (Ub-R^h110; Ubiquitin-Rhodamine 110, UbiQ-126) concentration was 25 nM. 3 μL of 2× enzyme was added to assay plates (pre-stamped with compound), preincubated for 30 minutes and then treated with 3 μL of 2× substrate. Plates were read for fluorescence on the Envision (Perkin Elmer) or PheraSTAR (BMG) (excitation at 485 nm and emission at 535 nm) 5 times over the course of 11 minutes and the slope of this kinetic read used to normalize the raw data.
For all assay formats, data were reported as percent inhibition compared with control wells based on the following equation: % inh=1−((FLU−AveLow)/(AveHigh−AveLow)) where FLU=measured Fluorescence, AveLow=average Fluorescence of no enzyme control (n=32), and AveHigh=average Fluorescence of DMSO control (n=32). IC50 values were determined by curve fitting of the standard 4 parameter logistic fitting algorithm included in the Activity Base software package: IDBS XE Designer Model205. Data are fitted using the Levenburg Marquardt algorithm.

| SMILES | IC50 [µM] |
| --- | --- |
| N#CN1CC[C@@H]2CCN(c3ncc(C4CCCCC4)s3)C(=O)[C@H]2C1 (single isomer, unassigned) [1-12R,R] | 0.1 to 1 |
| N#CN1CC[C@H]2CCN(c3ncc(C4CCCCC4)s3)C(=O)[C@H]2C1 (single isomer, unassigned) [1-12S,R] | 1 to 10 |
| N#CN1CC[C@H]2CCN(c3ncc(C4CCCCC4)s3)C(=O)[C@@H]2C1 (single isomer, unassigned) [1-12S,S] | 1 to 10 |
| N#CN1CCN2CCN(c3ncc(N4CCCC[C@@H]4Cc4ccccc4)s3)C(=O)[C@H]2C1 (single isomer, unassigned) [1-118R,R] | 0.1 to 1 |
| N#CN1CCN2CCN(c3ncc(N4CCCC[C@H]4Cc4ccccc4)s3)C(=O)[C@H]2C1 (single isomer, unassigned) [1-118R,S] | < 0.1 |
| N#CN1CCN2CCN(c3ncc(N4CCCC[C@@H]4Cc4ccccc4)s3)C(=O)[C@@H]2C1 (single isomer, unassigned) [1-118S,R] | 0.1 to 1 |
| N#CN1CCN2CCN(c3ncc(N4CCCC[C@H]4Cc4ccccc4)s3)C(=O)[C@@H]2C1 (single isomer, unassigned) [1-118S,S] | 0.1 to 1 |
| N#CN1CC[C@@H]2CCN(c3ncc(C4CCCCC4)s3)C[C@@H]2C1 (single isomer, unassigned) [4-1R,S] | 1 to 10 |
| N#CN1CC[C@H]2CCN(c3ncc(C4CCCCC4)s3)C[C@H]2C1 (single isomer, unassigned) [4-1S,R] | 1 to 10 |
| N#CN1CC[C@H]2CN(c3ncc(C4CCCCC4)s3)C(=O)[C@H]2C1 (single isomer, unassigned) [5-1R,R] | 10 to 25 |
| N#CN1CC[C@@H]2CN(c3ncc(C4CCCCC4)s3)C(=O)[C@@H]2C1 (single isomer, unassigned) [5-1S,S] | 1 to 10 |
| N#Cc1cccc(-c2cnc(N3C[C@H]4CN(C#N)CC[C@H]4C3)nc2)c1 (single isomer, unassigned) [5-2R,R] | > 25 |
| N#Cc1cccc(-c2cnc(N3C[C@H]4CCN(C#N)C[C@H]4C3)nc2)c1 (single isomer, unassigned) [5-2S,S] | 10 to 25 |
| N#CN1CCN2CCN(c3ncc(C4CCCCC4)s3)C(=O)[C@H]2C1 (single isomer, unassigned) [Compound 1-1R] | < 0.1 |
| N#CN1CCN2CCN(c3ncc(C4CCCCC4)s3)C(=O)[C@@H]2C1 (single isomer, unassigned) [Compound 1-1S] | 0.1 to 1 |
| CC(C)(C)c1sc(N2CCN3CCN(C#N)C[C@@H]3C2=O)nc1Cl (single isomer, unassigned) [Compound 1-2R] | < 0.1 |
| CC(C)(C)c1sc(N2CCN3CCN(C#N)C[C@H]3C2=O)nc1Cl (single isomer, unassigned) [Compound 1-2S] | < 0.1 |
| N#CN1CCN2CCN(c3nc(Cl)c(C4CCCCC4)s3)C(=O)[C@H]2C1 (single isomer, unassigned) [Compound 1-3R] | < 0.1 |
| N#CN1CCN2CCN(c3nc(Cl)c(C4CCCCC4)s3)C(=O)[C@@H]2C1 (single isomer, unassigned) [Compound 1-3S] | < 0.1 |
| N#Cc1cccc(-c2cnc(N3CCN4CCN(C#N)C[C@@H]4C3=O)nc2)c1 (single isomer, unassigned) [Compound 1-4R] | 1 to 10 |
| N#Cc1cccc(-c2cnc(N3CCN4CCN(C#N)C[C@H]4C3=O)nc2)c1 (single isomer, unassigned) [Compound 1-4S] | 1 to 10 |
| N#CN1CCN2CCN(c3ncc(-c4cccc(Cl)c4)cn3)C(=O)[C@H]2C1 (single isomer, unassigned) [Compound 1-5R] | 1 to 10 |
| N#CN1CCN2CCN(c3ncc(-c4cccc(Cl)c4)cn3)C(=O)[C@@H]2C1 (single isomer, unassigned) [Compound 1-5S] | 1 to 10 |

| SMILES | IC50 [µM] |
| --- | --- |
| N#Cc1cccc(-c2cnc(N3CCN4CCN(C#N)C[C@@H]4C3=O)s2)c1 (single isomer, unassigned) [Compound 1-6R] | < 0.1 |
| N#Cc1cccc(-c2cnc(N3CCN4CCN(C#N)C[C@H]4C3=O)s2)c1 (single isomer, unassigned) [Compound 1-6S] | < 0.1 |
| N#CN1CCN2CCN(c3ncc(-c4cccc(Cl)c4)s3)C(=O)[C@H]2C1 (single isomer, unassigned) [Compound 1-7R] | < 0.1 |
| N#CN1CCN2CCN(c3ncc(-c4cccc(Cl)c4)s3)C(=O)[C@@H]2C1 (single isomer, unassigned) [Compound 1-7S] | < 0.1 |
| N#CN1CCN2CCN(c3cc(-c4cccc(Cl)c4)on3)C(=O)[C@H]2C1 (single isomer, unassigned) [Compound 1-11R] | > 25 |
| N#CN1CCN2CCN(c3cc(-c4cccc(Cl)c4)on3)C(=O)[C@@H]2C1 (single isomer, unassigned) [Compound 1-11S] | > 25 |
| N#CN1CCN2CCN(c3ncc(-c4ccccc4)s3)C(=O)[C@H]2C1 (single isomer, unassigned) [Compound 1-14R] | < 0.1 |
| N#CN1CCN2CCN(c3ncc(-c4ccccc4)s3)C(=O)[C@@H]2C1 (single isomer, unassigned) [Compound 1-14S] | 0.1 to 1 |
| CC(C)(C)c1cnc(N2CCN3CCN(C#N)C[C@]3(C)C2=O)s1 (single isomer, unassigned) [Compound 1-15R] | 1 to 10 |
| N#CN1CCN2CCN(c3cc(-c4ccccc4Oc4ccccc4)[nH]n3)C(=O)[C@H]2C1 (single isomer, unassigned) [Compound 1-114R] | 0.1 to 1 |
| N#CN1CCN2CCN(c3cc(-c4ccccc4Oc4ccccc4)[nH]n3)C(=O)[C@@H]2C1 (single isomer, unassigned) [Compound 1-114S] | 0.1 to 1 |
| N#CN1CCN2CCN(c3ncc(-c4cccc(CN5CCC5)c4)s3)C(=O)[C@H]2C1 (single isomer, unassigned) [Compound 1-115R] | 1 to 10 |
| N#CN1CCN2CCN(c3ncc(-c4cccc(CN5CCC5)c4)s3)C(=O)[C@@H]2C1 (single isomer, unassigned) [Compound 1-115S] | 1 to 10 |
| CC(C)(C)c1sc(N2CCN3CCN(C#N)C[C@@]3(F)C2=O)nc1Cl (single isomer, unassigned) [Compound 1-116R] | 1 to 10 |
| CC(C)(C)c1sc(N2CCN3CCN(C#N)C[C@]3(F)C2=O)nc1Cl (single isomer, unassigned) [Compound 1-116S] | 1 to 10 |
| C[C@]12CN(C#N)CCN1CCN(c1ncc(C3CCCCC3)s1)C2=O (single isomer, unassigned) [Compound 1-117R] | < 0.1 |
| C[C@@]12CN(C#N)CCN1CCN(c1ncc(C3CCCCC3)s1)C2=O (single isomer, unassigned) [Compound 1-117S] | 1 to 10 |
| N#CN1CC(=O)N2CCN(c3ncc(C4CCCCC4)s3)C[C@H]2C1 (single isomer, unassigned) [Compound 3-1R] | < 0.1 |
| N#CN1CC(=O)N2CCN(c3ncc(C4CCCCC4)s3)C[C@@H]2C1 (single isomer, unassigned) [Compound 3-1S] | 0.1 to 1 |
| CC(C)(C)c1sc(N2CC(=O)N3CCN(C#N)C[C@@H]3C2=O)nc1Cl (single isomer, unassigned) [Compound 6-1R] | < 0.1 |
| CC(C)(C)c1sc(N2CC(=O)N3CCN(C#N)C[C@H]3C2=O)nc1Cl (single isomer, unassigned) [Compound 6-1S] | < 0.1 |
| N#CN1CCN2CCN(c3ncc(-c4ccccc4Oc4ccccc4)s3)C(=O)C2C1 (stereo in doubt) [Compound 1-113R, (R)-9-oxo-8-(5-(2-phenoxyphenyl)thiazol-2-yl)octahydro-2H-pyrazino[1,2-a]pyrazine-2-carbonitrile] | < 0.1 |
| N#CN1CCN2CCN(c3ncc(-c4ccccc4Oc4ccccc4)s3)C(=O)C2C1 (stereo in doubt) [Compound 1-113S, (S)-9-oxo-8-(5-(2-phenoxyphenyl)thiazol-2-yl)octahydro-2H-pyrazino[1,2-a]pyrazine-2-carbonitrile] | < 0.1 |
